Like-named read-outs stand apart in the source and are kept apart here. A value given as a limit tells only on which side of the number the result lay.

What is called IC50 is the point on the concentration scale where inhibition reaches its midpoint.

In one test the target is serotonin transporter (Homo sapiens, UniProt P31645). In words: 5-HT uptake: displacement of serotonin ligands in vitro (methods of Gu et al.). Format: binding.
Test [1] has as its target norepinephrine transporter (Homo sapiens, UniProt P23975). In words: NE uptake: displacement of norephinephrine ligands in vitro (methods of Galli et al.). Format: binding.
The next test addresses dopamine transporter (Homo sapiens, UniProt Q01959). In words: DA uptake: displacement of dopamine ligands in vitro (methods of Gu et al.). The following applies: displacement of dopamine ligands in vitro.
[2] abbreviates: displacement of serotonin ligands in vitro, read-out: 5-HT Uptake, Uptake Profile (IC50).
The mark [3] stands for this setting: read-out: NE Uptake, Uptake Profile (IC50).
Setting [4] is: DA Uptake, Uptake Profile (IC50, nM).
Setting [5] is: NE Uptake, Uptake Profile (IC50, nM).
[6] abbreviates: 5-HT Uptake, Uptake Profile (IC50, nM).

dopamine transporter, sequence (Q01959 whole entry): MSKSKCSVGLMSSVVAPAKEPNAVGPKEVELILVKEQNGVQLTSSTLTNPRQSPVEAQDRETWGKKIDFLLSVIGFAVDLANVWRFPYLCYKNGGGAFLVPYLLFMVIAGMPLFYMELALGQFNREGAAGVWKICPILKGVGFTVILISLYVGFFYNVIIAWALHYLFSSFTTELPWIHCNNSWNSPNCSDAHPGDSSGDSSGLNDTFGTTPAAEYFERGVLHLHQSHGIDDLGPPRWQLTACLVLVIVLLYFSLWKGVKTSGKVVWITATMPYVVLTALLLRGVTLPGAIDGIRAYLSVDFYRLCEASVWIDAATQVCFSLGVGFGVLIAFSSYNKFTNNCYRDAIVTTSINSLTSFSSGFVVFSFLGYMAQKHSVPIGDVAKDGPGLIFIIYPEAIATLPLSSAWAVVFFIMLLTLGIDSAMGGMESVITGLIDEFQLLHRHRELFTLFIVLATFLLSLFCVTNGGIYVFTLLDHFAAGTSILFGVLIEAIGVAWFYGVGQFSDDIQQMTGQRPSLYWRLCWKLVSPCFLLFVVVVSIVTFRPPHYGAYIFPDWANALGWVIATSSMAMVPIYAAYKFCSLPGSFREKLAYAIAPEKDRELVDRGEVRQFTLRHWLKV
norepinephrine transporter, sequence (P23975 whole entry): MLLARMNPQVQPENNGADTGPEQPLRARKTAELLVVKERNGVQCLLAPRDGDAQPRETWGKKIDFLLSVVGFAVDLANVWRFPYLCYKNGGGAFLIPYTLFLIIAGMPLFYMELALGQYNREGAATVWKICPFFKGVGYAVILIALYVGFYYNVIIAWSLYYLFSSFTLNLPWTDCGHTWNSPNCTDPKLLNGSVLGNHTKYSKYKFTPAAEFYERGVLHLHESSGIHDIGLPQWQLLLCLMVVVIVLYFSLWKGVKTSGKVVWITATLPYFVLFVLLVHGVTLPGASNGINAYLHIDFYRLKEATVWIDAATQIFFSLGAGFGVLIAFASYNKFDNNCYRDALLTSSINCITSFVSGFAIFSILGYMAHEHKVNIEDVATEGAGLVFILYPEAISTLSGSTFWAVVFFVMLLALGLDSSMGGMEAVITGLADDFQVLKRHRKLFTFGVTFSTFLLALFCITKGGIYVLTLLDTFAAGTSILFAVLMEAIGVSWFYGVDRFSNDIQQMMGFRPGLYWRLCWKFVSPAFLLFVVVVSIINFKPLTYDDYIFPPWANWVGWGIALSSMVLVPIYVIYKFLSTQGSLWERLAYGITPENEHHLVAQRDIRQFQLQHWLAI
serotonin transporter, sequence (P31645 whole entry): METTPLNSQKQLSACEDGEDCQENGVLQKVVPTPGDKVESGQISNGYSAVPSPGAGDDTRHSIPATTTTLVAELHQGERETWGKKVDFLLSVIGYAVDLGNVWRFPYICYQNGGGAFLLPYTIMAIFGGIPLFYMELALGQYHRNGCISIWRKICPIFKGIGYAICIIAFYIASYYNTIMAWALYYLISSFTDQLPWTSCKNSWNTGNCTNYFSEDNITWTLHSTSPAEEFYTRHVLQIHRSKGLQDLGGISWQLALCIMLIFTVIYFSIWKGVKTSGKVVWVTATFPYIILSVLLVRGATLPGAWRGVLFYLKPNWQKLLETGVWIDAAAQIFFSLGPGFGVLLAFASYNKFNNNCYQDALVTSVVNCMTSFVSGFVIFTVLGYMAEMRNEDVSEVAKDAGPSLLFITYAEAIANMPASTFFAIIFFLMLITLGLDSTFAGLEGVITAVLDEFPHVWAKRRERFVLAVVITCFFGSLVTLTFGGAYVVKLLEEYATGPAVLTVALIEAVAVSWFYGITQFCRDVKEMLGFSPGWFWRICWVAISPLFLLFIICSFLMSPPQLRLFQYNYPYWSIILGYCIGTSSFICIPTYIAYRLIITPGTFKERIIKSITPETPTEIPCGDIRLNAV

On to `OC(CN1CCCC(COc2ccc(C(F)(F)F)cc2)C1)(c1ccccc1)C1CCCCC1` (centres unmarked) [compound 191, 1-Cyclohexyl-1-phenyl-2-[3-(4-trifluoromethyl-phenoxymethyl)-piperidin-1-yl]-ethanol], for which the IC50 (at serotonin transporter (setting [2]); in test [1] (setting [3]); at dopamine transporter (setting [4])) was more than 1000 nM in each case.

`Clc1ccc(C2(CN3CCCC(COc4ccccc4)C3)CCC2)cc1` (single isomer, unassigned) [compound 5] returned an IC50 at dopamine transporter (setting [4]) of less than 1000 nM.

Regarding `CC(O)(C[C@H]1CCCN(CC2(c3ccc(Cl)cc3)CCC2)C1)c1ccccc1` (stereo in doubt) [compound 185, (S)-[1-{1-[1-(4-Chloro-phenyl)-cyclobutylmethyl]-piperidin-3-yl}-2-phenyl-propan-2-ol]], the IC50 on serotonin transporter (setting [2]) was more than 1000 nM; in test [1] (setting [3]), more than 1000 nM; on dopamine transporter (setting [4]), less than 1000 nM.

Consider `Clc1ccc(C2(CN3CCCC(COc4ccccc4)C3)CCC2)cc1` (single isomer, unassigned) [compound 6], for which, at dopamine transporter (read-out: DA Uptake, Uptake Profile (IC50)), the IC50 was less than 1000 nM.

For the compound `CO[C@@H](CN1CCC[C@H](COc2ccc(C(F)(F)F)cc2)C1)C1(c2ccc(Cl)cc2)CCC1` [compound 162], the figures for the IC50 (at serotonin transporter (setting [2]); in test [1] (setting [5]); on dopamine transporter (setting [4])) were less than 1000 nM, more than 1000 nM and less than 100 nM, respectively.

Take `COc1ccc(OCC2CCCN(CC3(c4ccccc4)CCC3)C2)cc1` (centres unmarked) [compound 55, 3-(4-Methoxy-phenoxymethyl)-1-(1-phenyl-cyclobutylmethyl)piperidine]: the IC50 at serotonin transporter (setting [2]) was more than 1000 nM; in test [1] (setting [5]), more than 1000 nM; at dopamine transporter (setting [4]), less than 1000 nM.

Consider `OC(CN1CCCC(COc2ccc(OC(F)(F)F)cc2)C1)C1(c2ccc(Cl)cc2)CCC1` (centres unmarked) [compound 210, 1-[1-(4-Chloro-phenyl)-cyclobutyl]-2-[3-(4-trifluoromethoxy-phenoxymethyl)-piperidin-1-yl]-ethanol], for which the IC50 at serotonin transporter (setting [2]) was less than 1000 nM; in test [1] (setting [5]) it was less than 100 nM; at dopamine transporter (setting [4]), less than 10 nM.

As to `COc1ccc(C2(CN3CCC[C@@H](COc4ccc(OC(F)(F)F)cc4)C3)CCC2)cc1` [compound 170, (R)-1-[1-(4-Methoxy-phenyl)-cyclobutylmethyl]-3-(4-trifluoromethoxy-phenoxymethyl)-piperidine], the IC50 is less than 1000 nM on serotonin transporter (setting [2]), less than 1000 nM in test [1] (setting [5]) and less than 10 nM at dopamine transporter (setting [4]).

For the compound `FC(F)(F)c1ccc(SCC2CCCN(CC3(c4ccc(Cl)cc4)CCC3)C2)cc1` (centres unmarked) [compound 78], the IC50 at serotonin transporter (setting [2]) is more than 1000 nM; in test [1] (setting [5]), less than 1000 nM; on dopamine transporter (setting [4]), less than 1000 nM.

Turning to `FC(F)(F)c1ccc(OCC2CCCCN(CC3(c4ccc(Cl)cc4)CCC3)C2)cc1` (centres unmarked) [compound 168, 1-[1-(4-Chloro-phenyl)-cyclobutylmethyl]-3-(4-trifluoromethyl-phenoxymethyl)-azepane], the IC50 on serotonin transporter (setting [2]) was more than 1000 nM; in test [1] (setting [5]) it was less than 1000 nM; on dopamine transporter (setting [4]) it was less than 100 nM.

On to `FC(F)(F)c1ccc(OCC2CCCN(CCc3ccc(-c4ccccc4)cc3)C2)cc1` (centres unmarked) [compound 181, 1-(2-Biphenyl-4-yl-ethyl)-3-(4-trifluoromethyl-phenoxymethyl)-piperidine], for which the IC50 on serotonin transporter (setting [6]) was less than 100 nM; in test [1] (setting [5]), less than 1000 nM; at dopamine transporter (setting [4]) it was more than 1000 nM.

Consider `FC(F)(F)c1ccc(OCC2CCCN(CCc3c[nH]c4ccccc34)C2)cc1` (centres unmarked) [compound 180, 3-{2-[3-(4-Trifluoromethyl-phenoxymethyl)-piperidin-1-yl]-ethyl}-1H-indole], for which the IC50 (at serotonin transporter (setting [2]); in test [1] (setting [5]); on dopamine transporter (setting [4])) was less than 1000 nM throughout.

For the compound `Fc1ccc(OC[C@@H]2CCCN(CC3(c4ccc(Cl)cc4)CCC3)C2)cc1` [compound 133, (R)-1-[1-(4-Chloro-phenyl)-cyclobutylmethyl]-3-(4-fluoro-phenoxymethyl)-piperidine], the figures for the IC50 (at serotonin transporter (setting [6]); in test [1] (setting [5]); at dopamine transporter (setting [4])) were more than 1000 nM, less than 1000 nM and less than 1000 nM, respectively.

For `OC(CN1CCCC(COc2ccc(C(F)(F)F)cc2)C1)C1(c2ccccc2OC(F)(F)F)CCC1` (single isomer, unassigned) [compound 227, 1-[1-(2-Trifluoromethoxy-phenyl)-cyclobutyl]-2-[3-(4-trifluoromethyl-phenoxymethyl)-piperidin-1-yl]-ethanol], the IC50 on serotonin transporter (setting [2]) is less than 1000 nM; in test [1] (setting [5]) it was more than 1000 nM; on dopamine transporter (setting [4]) it was less than 1000 nM.

For `CNC(CN1CCC[C@@H](CCc2ccccc2)C1)c1ccc(Cl)cc1` (stereo partly drawn) [compound 213, [1-(4-Chloro-phenyl)-2-(3(R)-phenethyl-piperidin-1-yl)-ethyl]-methyl-amine], the IC50 at serotonin transporter (setting [2]) is less than 100 nM; in test [1] (setting [5]), less than 1000 nM; at dopamine transporter (setting [4]) it was less than 1000 nM.

Regarding `O=C(CN1CCCC(CCc2ccc(C(F)(F)F)cc2)C1)C1(c2ccc(Cl)cc2)CCC1` (centres unmarked) [compound 155, 1-[1-(4-Chloro-phenyl)-cyclobutyl]-2-{3-[2-(4-trifluoromethyl-phenyl)-ethyl]-piperidin-1-yl}-ethanone], the figures for the IC50 (at serotonin transporter (setting [2]); in test [1] (setting [5]); at dopamine transporter (setting [4])) were more than 1000 nM, more than 1000 nM and less than 100 nM, respectively.

For the compound `FC(F)(F)c1ccc(OCC2CCCN(CC3COc4ccccc4O3)C2)cc1` (single isomer, unassigned) [compound 177, 1-(2,3-Dihydro-benzo[1,4]dioxin-2-ylmethyl)-3-(4-trifluoromethyl-phenoxymethyl)-piperidine], the IC50 at serotonin transporter (setting [2]) is less than 1000 nM; in test [1] (setting [5]), more than 1000 nM; at dopamine transporter (setting [4]), more than 1000 nM.

For the compound `CO[C@H](CN1CCC[C@H](COc2ccc(C(F)(F)F)cc2)C1)C1(c2ccc(Cl)cc2)CCC1` [compound 163], the IC50 on serotonin transporter (setting [2]) is less than 1000 nM; in test [1] (setting [5]), more than 1000 nM; at dopamine transporter (setting [4]), less than 10 nM.

Turning to `FC(F)(F)c1ccc(OCC2CN(CC3(c4ccc(Cl)cc4)CCC3)CCCO2)cc1` (centres unmarked) [compound 11], the IC50 at serotonin transporter (setting [2]) was more than 1000 nM; in test [1] (setting [5]) it was more than 1000 nM; at dopamine transporter (setting [4]), less than 1000 nM.

As to `FC(F)(F)c1ccc(OC2CCCN(CC3(c4ccc(Cl)cc4)CCC3)C2)cc1` (centres unmarked) [compound 158], the IC50 at serotonin transporter (setting [2]) was more than 1000 nM; in test [1] (setting [5]), more than 1000 nM; on dopamine transporter (setting [4]), less than 1000 nM.

Regarding `O=C(CN1CCC[C@@H](CCc2ccccc2)C1)c1ccc(Cl)cc1` [compound 145, (R)-1-(4-Chloro-phenyl)-2-(3-phenethyl-piperidin-1-yl)-ethanone], the IC50 (on serotonin transporter (setting [6]); in test [1] (setting [5]); on dopamine transporter (setting [4])) was less than 1000 nM in each case.

For the compound `OC(CN1CCCC(COc2ccc(OC(F)(F)F)cc2)C1)C1(c2ccc(OC(F)(F)F)cc2)CCC1` (centres unmarked) [compound 212, 2-[3-(4-Trifluoromethoxy-phenoxymethyl)-piperidin-1-yl]-1-[1-(4-trifluoromethoxy-phenyl)-cyclobutyl]-ethanol], the IC50 at serotonin transporter (setting [2]) is less than 1000 nM; in test [1] (setting [5]), less than 1000 nM; at dopamine transporter (setting [4]), less than 100 nM.

For the compound `Clc1ccc(C2(CN3CCC[C@@H](COc4ccccc4)C3)CCC2)cc1` [compound 72], the IC50 at dopamine transporter (setting [4]) was less than 1000 nM.

For the compound `OC(CN1CCCC(CCc2ccc(C(F)(F)F)cc2)C1)c1ccc(Cl)cc1` (single isomer, unassigned) [compound 151, 1-(4-Chloro-phenyl)-2-{3-[2-(4-trifluoromethyl-phenyl)-ethyl]-piperidin-1-yl}-ethanol], the IC50 (at serotonin transporter (setting [2]); in test [1] (setting [5]); on dopamine transporter (setting [4])) was less than 1000 nM in each case.

On to `OC(CN1CCCC(COc2ccc(C(F)(F)F)cc2)C1)c1c[nH]c2ccc(Cl)cc12` (centres unmarked) [compound 222, 1-(5-Chloro-1H-indol-3-yl)-2-[3-(4-trifluoromethyl-phenoxymethyl)-piperidin-1-yl]-ethanol], for which the results for the IC50 (at serotonin transporter (setting [2]); in test [1] (setting [5]); at dopamine transporter (setting [4])) were less than 1000 nM, more than 1000 nM and more than 1000 nM, respectively.

With `OC(CN1CCCC(CCc2ccc(C(F)(F)F)cc2)C1)C1(c2ccc(Cl)cc2)CCC1` (single isomer, unassigned) [compound 195, 1-[1-(4-Chloro-phenyl)-cyclobutyl]-2-{3-[2-(4-trifluoromethyl-phenyl)-ethyl]-piperidin-1-yl}-ethanol], the IC50 at serotonin transporter (setting [2]) is less than 1000 nM; in test [1] (setting [5]) it was less than 1000 nM; at dopamine transporter (setting [4]), less than 100 nM.

Consider `OC(CN1CCCC(COc2ccccc2)C1)C1(c2ccc(Cl)cc2)CCC1` (centres unmarked) [compound 21, 1-[1-(4-Chloro-phenyl)cyclobutyl]-2-(3-phenoxymethylpiperidin-1-yl)ethanol], for which the IC50 at serotonin transporter (setting [2]) was less than 1000 nM; in test [1] (setting [5]) it was less than 100 nM; on dopamine transporter (setting [4]), less than 100 nM.

For the compound `FC(F)(F)c1ccc(CCC2CCCN(CC3(c4ccc(Cl)cc4)CCC3)C2)cc1` (centres unmarked) [compound 95, 1-[1-(4-Chloro-phenyl)-cyclobutylmethyl]-3-[2-(4-trifluoromethyl-phenyl)-ethyl]-piperidine], the figures for the IC50 (at serotonin transporter (setting [2]); in test [1] (setting [3]); at dopamine transporter (setting [4])) were less than 1000 nM, more than 1000 nM and less than 1000 nM, respectively.

As to `CO[C@@H](CN1CCC[C@@H](COc2ccc(C(F)(F)F)cc2)C1)C1(c2ccc(Cl)cc2)CCC1` [compound 160], the IC50 was less than 1000 nM on serotonin transporter (setting [2]), more than 1000 nM in test [1] (setting [5]) and less than 100 nM on dopamine transporter (setting [4]).

As to `OC1CCCN(CC2(c3ccc(Cl)cc3)CCC2)C1` (centres unmarked) [compound 89, 1-[1-(4-Chlorophenyl)cyclobutylmethyl]piperidin-3-ol], the IC50 is more than 1000 nM on serotonin transporter (setting [2]), less than 1000 nM in test [1] (setting [5]) and less than 1000 nM on dopamine transporter (setting [4]).

In the case of `CC(O)(CN1CCCC(COc2ccccc2)C1)c1ccc(Cl)cc1` (centres unmarked) [compound 79, 2-(4-Chloro-phenyl)-1-(3-phenoxymethyl-piperidin-1-yl)-propan-2-ol], the values for the half-inhibitory concentration (IC50) (at serotonin transporter (setting [2]); in test [1] (setting [5]); at dopamine transporter (setting [4])) were less than 100 nM, less than 1000 nM and less than 1000 nM, respectively.

`FC(F)(F)c1ccc(OCC2CCCN(CCc3ccc(Cl)cc3)C2)cc1` (centres unmarked) [compound 8, 1-[2-(4-Chloro-phenyl)-ethyl]-3-(4-trifluoromethyl-phenoxymethyl)-piperidine]: the IC50 (in test [1] (setting [3]); at dopamine transporter (setting [4])) was more than 1000 nM each time.

Source of the values: patent US7294637B2 (Sepracor, Inc., priority 2000, dated 2007).
